Assay results as given in patent US20240165243A1, “EGFR DEGRADERS AND METHODS OF USE” (BeiGene Switzerland GmbH, priority 2021, published 2024).

Tested on: EGFR (Del19/T790M/C797S)
Assay: Cell degradation HTRF assay, H1975-clone #28 cells
Assay type: cell-based
Settings: H1975-clone #28 (Del19/T790M/C797S) cells, 16 h treatment; for DC50: HTRF, read-out: H1975-clone#28 DTC DC50; for H1975-clone#28 DTC Dmax (%): maximum percentage of degradation
Experimental: Cell Degradation of Example 124-189
H1975-#28 and H1975-#25 cells are treated with compounds diluted in 0.2% DMSO cell culture medium on day 2, incubate for 16 h, 37° C., 5% CO2. the final concentration of compounds in all assay is start with 10 uM, 5-fold dilution, total 8 doses were included.
After 16 h treatment, add HTRF lysis buffer to each well; seal the plate and incubate 1 hour at room temperature on a plate shaker; Once the cells are lysed, 16 μL of cell lysate are transferred to a PE 384-well HTRF detection plate; 4 μL of pre-mixed HTRF antibodies are added to each well; Cover the plate with a plate sealer, spin 1000 rpm for 1 min, Incubate overnight at room temperature; Read on BMG PheraStar with HTRF protocol (337 nm-665 nm-620 nm).
The inhibition (degradation) percentage of the compound was calculated by the following equation:
Inhibition percentage of Compound=100−100×(Signal−low control)/(High control−low control), wherein signal=each test compound group.
High control=Cell group with added DMSO and without compound, indicating microplate readings without EGFR degradation;
Dmax is the maximum percentage of inhibition (degradation).
The IC50 (DC50) value of a compound can be obtained by fitting the following equation
Y=Bottom+(TOP−Bottom)/(1+((IC50/X)^hillslope))
Wherein, X and Y are known values, and IC50, Hillslope, Top and Bottom are the parameters obtained by fitting with software. Y is the inhibition percentage (calculated from the equation), X is the concentration of the compound; IC50 is the concentration of the compound when the 50% inhibition is reached. The smaller the IC50 value is, the stronger the inhibitory ability of the compound is. Vice versa, the higher the IC50 value is, the weaker the ability the inhibitory ability of the compound is; Hillslope represents the slope of the fitted curve, generally around 1*; Bottom represents the minimum value of the curve obtained by data fitting, which is generally 0%±20%; Top represents the maximum value of the curve obtained by data fitting, which is generally 100%±20%. The experimental data were fitted by calculating and analyzing with Dotmatics data analysis software. When Dmax<50%, DC50 will be automatically assigned as larger than […].

Row | Structure (SMILES) | DC50 [nM] | H1975-clone#28 DTC Dmax (%)
1 | CCc1cc(Nc2ncc(Br)c(Nc3cnc4ccccc4c3P(C)(C)=O)n2)c(OC)cc1N1CCC(N2CCN(CCc3ccc4c(oc(=O)n4C4CCC(=O)NC4=O)c3F)CC2)CC1 (stereo not shown) [Example 142, 3-(6-(2-(4-(1-(4-((5-bromo-4-((4-(dimethylphosphoryl)quinolin-3-yl)amino)pyrimidin-2-yl)amino)-2-ethyl-5-methoxyphenyl)piperidin-4-yl)piperazin-1-yl)ethyl)-7-fluoro-2-oxobenzo[d]oxazol-3(2H)-yl)piperidine-2,6-dione] | 0.9 | 81
2 | CCc1cc(Nc2ncc(Br)c(Nc3cnc4c(F)c(F)ccc4c3P(C)(C)=O)n2)c(OC)cc1N1CCC(N2CCN(CCc3cc(F)c(C4CCC(=O)NC4=O)c(F)c3)CC2)CC1 (stereo not shown) [Example 173, 3-(4-(2-(4-(1-(4-((5-bromo-4-((4-(dimethylphosphoryl)-7,8-difluoroquinolin-3-yl)amino)pyrimidin-2-yl)amino)-2-ethyl-5-methoxyphenyl)piperidin-4-yl)piperazin-1-yl)ethyl)-2,6-difluorophenyl)piperidine-2,6-dione] | 2.7 | 82
3 | CCc1cc(Nc2ncc(Br)c(Nc3cnc4ccccc4c3P(C)(C)=O)n2)c(OC)cc1N1CCC(N2CCN(CCc3cccc4c3n(CC)c(=O)n4C3CCC(=O)NC3=O)CC2)CC1 (stereo not shown) [Example 163, 3-(4-(2-(4-(1-(4-((5-bromo-4-((4-(dimethylphosphoryl)quinolin-3-yl)amino)pyrimidin-2-yl)amino)-2-ethyl-5-methoxyphenyl)piperidin-4-yl)piperazin-1-yl)ethyl)-3-ethyl-2-oxo-2,3-dihydro-1H-benzo[d]imidazol-1-yl)piperidine-2,6-dione] | 1.1 | 86
4 | CCc1cc(Nc2ncc(Br)c(Nc3cnc4ccccc4c3P(C)(C)=O)n2)c(OC)cc1N1CCC(N2CCN(CCc3ccc4c(c3)oc(=O)n4C3CCC(=O)NC3=O)CC2)CC1 (stereo not shown) [Example 176, 3-(6-(2-(4-(1-(4-((5-bromo-4-((4-(dimethylphosphoryl)quinolin-3-yl)amino)pyrimidin-2-yl)amino)-2-ethyl-5-methoxyphenyl)piperidin-4-yl)piperazin-1-yl)ethyl)-2-oxobenzo[d]oxazol-3(2H)-yl)piperidine-2,6-dione] | 1.6 | 73
5 | CCc1cc(Nc2ncc(Br)c(Nc3cnc4ccccc4c3P(C)(C)=O)n2)c(OC)cc1N1CCC(N2CCN([C@H]3C[C@H](c4cc(F)c(C5CCC(=O)NC5=O)c(F)c4)C3)CC2)CC1 (stereo partly shown) [Example 184, 3-(4-((1r,3r)-3-(4-(1-(4-((5-bromo-4-((4-(dimethylphosphoryl)quinolin-3-yl)amino)pyrimidin-2-yl)amino)-2-ethyl-5-methoxyphenyl)piperidin-4-yl)piperazin-1-yl)cyclobutyl)-2,6-difluorophenyl)piperidine-2,6-dione] | 1.5 | 81
6 | CCc1cc(Nc2ncc(Br)c(Nc3cnc4cc(F)ccc4c3P(C)(C)=O)n2)c(OC)cc1N1CCC(N2CCN(CCc3cc(F)c(C4CCC(=O)NC4=O)c(F)c3)CC2)CC1 (stereo not shown) [Example 172, 3-(4-(2-(4-(1-(4-((5-bromo-4-((4-(dimethylphosphoryl)-7-fluoroquinolin-3-yl)amino)pyrimidin-2-yl)amino)-2-ethyl-5-methoxyphenyl)piperidin-4-yl)piperazin-1-yl)ethyl)-2,6-difluorophenyl)piperidine-2,6-dione] | 1.4 | 81
7 | CCOc1cc(N2CCC(N3CCN(CCc4cccc5c4C(C)(C)C(=O)N5C4CCC(=O)NC4=O)CC3)CC2)c(CC)cc1Nc1ncc(Br)c(Nc2cnc3ccccc3c2P(C)(C)=O)n1 (stereo not shown) [Example 138, 3-(4-(2-(4-(1-(4-((5-bromo-4-((4-(dimethylphosphoryl)quinolin-3-yl)amino)pyrimidin-2-yl)amino)-5-ethoxy-2-ethylphenyl)piperidin-4-yl)piperazin-1-yl)ethyl)-3,3-dimethyl-2-oxoindolin-1-yl)piperidine-2,6-dione] | 3 | 83
8 | CCc1cc(Nc2ncc(Br)c(Nc3cnc4ccccc4c3P(C)(C)=O)n2)c(OC)cc1N1CCC(N2CCN(CCc3cccc4c3n(CC)c(=O)n4C3CCC(=O)NC3=O)CC2)CC1 (stereo not shown) [Example 135, 3-(4-(2-(4-(1-(4-((5-bromo-4-((4-(dimethylphosphoryl)quinolin-3-yl)amino)pyrimidin-2-yl)amino)-2-ethyl-5-methoxyphenyl)piperidin-4-yl)piperazin-1-yl)ethyl)-3-ethyl-2-oxo-2,3-dihydro-1H-benzo[d]imidazol-1-yl)piperidine-2,6-dione] | 0.9 | 83
9 | CCc1cc(Nc2ncc(Br)c(Nc3cnc4ccccc4c3P(C)(C)=O)n2)c(OC)cc1N1CCC(N2CCN(CCc3ccc(F)c4c3n(C)c(=O)n4C3CCC(=O)NC3=O)CC2)CC1 (stereo not shown) [Example 130, 3-(4-(2-(4-(1-(4-((5-bromo-4-((4-(dimethylphosphoryl)quinolin-3-yl)amino)pyrimidin-2-yl)amino)-2-ethyl-5-methoxyphenyl)piperidin-4-yl)piperazin-1-yl)ethyl)-7-fluoro-3-methyl-2-oxo-2,3-dihydro-1H-benzo[d]imidazol-1-yl)piperidine-2,6-dione] | 1 | 86
10 | CCOc1cc(N2CCC(N3CCN(CCc4c(F)ccc5c4n(C)c(=O)n5C4CCC(=O)NC4=O)CC3)CC2)c(CC)cc1Nc1ncc(Br)c(Nc2cnc3ccccc3c2P(C)(C)=O)n1 (stereo not shown) [Example 137, 3-(4-(2-(4-(1-(4-((5-bromo-4-((4-(dimethylphosphoryl)quinolin-3-yl)amino)pyrimidin-2-yl)amino)-5-ethoxy-2-ethylphenyl)piperidin-4-yl)piperazin-1-yl)ethyl)-5-fluoro-3-methyl-2-oxo-2,3-dihydro-1H-benzo[d]imidazol-1-yl) piperidine-2,6-dione] | 2.1 | 86
11 | CCc1cc(Nc2ncc(Br)c(Nc3cnc4ccccc4c3P(C)(C)=O)n2)c(OC)cc1N1CCC(N2CCN(C(=O)C3CCN(c4cc(F)c(C5CCC(=O)NC5=O)c(F)c4)CC3)CC2)CC1 (stereo not shown) [Example 185, 3-(4-(4-(4-(1-(4-((5-bromo-4-((4-(dimethylphosphoryl)quinolin-3-yl)amino)pyrimidin-2-yl)amino)-2-ethyl-5-methoxyphenyl)piperidin-4-yl)piperazine-1-carbonyl)piperidin-1-yl)-2,6-difluorophenyl)piperidine-2,6-dione] | 1.2 | 71
12 | CCc1cc(Nc2ncc(Br)c(Nc3cnc4ccccc4c3P(C)(C)=O)n2)c(OC)cc1N1CCC(N2CCN(CCc3cccc4c3C(C)(C)C(=O)N4C3CCC(=O)NC3=O)CC2)CC1 (stereo not shown) [Example 164, 3-(4-(2-(4-(1-(4-((5-bromo-4-((4-(dimethylphosphoryl)quinolin-3-yl)amino)pyrimidin-2-yl)amino)-2-ethyl-5-methoxyphenyl)piperidin-4-yl)piperazin-1-yl)ethyl)-3,3-dimethyl-2-oxoindolin-1-yl)piperidine-2,6-dione] | 2.1 | 81
13 | CCc1cc(Nc2ncc(Br)c(Nc3cnc4c(F)cccc4c3P(C)(C)=O)n2)c(OC)cc1N1CCC(N2CCN(CCc3cc(F)c(C4CCC(=O)NC4=O)c(F)c3)CC2)CC1 (stereo not shown) [Example 181, 3-(4-(2-(4-(1-(4-((5-bromo-4-((4-(dimethylphosphoryl)-8-fluoroquinolin-3-yl)amino)pyrimidin-2-yl)amino)-2-ethyl-5-methoxyphenyl)piperidin-4-yl)piperazin-1-yl)ethyl)-2,6-difluorophenyl)piperidine-2,6-dione] | 4.2 | 82
14 | CCOc1cc(N2CCC(N3CCN(CCc4cc(F)c(F)c5c4oc(=O)n5C4CCC(=O)NC4=O)CC3)CC2)c(CC)cc1Nc1ncc(Br)c(Nc2cnc3ccccc3c2P(C)(C)=O)n1 (stereo not shown) [Example 136, 3-(7-(2-(4-(1-(4-((5-bromo-4-((4-(dimethylphosphoryl)quinolin-3-yl)amino)pyrimidin-2-yl)amino)-5-ethoxy-2-ethylphenyl)piperidin-4-yl)piperazin-1-yl)ethyl)-4,5-difluoro-2-oxobenzo[d]oxazol-3(2H)-yl)piperidine-2,6-dione] | 0.6 | 81
